Structures are written as SMILES.

We go through one molecule from publication PMC8533176, “1,5-Benzodiazepin-2(3H)-ones: In Vitro Evaluation as Antiparkinsonian Agents” (Antioxidants, 2021).

Common to all, as to type: cell-based, human
The test system of assay [1] is SH-SY5Y cells. The assay is described as follows: Calcein-AM cell viability assay under H2O2. The following applies: H2O2 250 µM 24 h; 5, 10, 20, and 40 µM; Figure 12. The procedure: Calcein-AM is a fluorescence-based cell viability assay. Calcein-acetoxymethyl (AM) is a non-fluorescent compound that enters the cells where intracellular esterases hydrolyze the acetoxymethyl group. The fluorescent calcein is retained in the living cells, and it can be detected at λex = 495 and λem = 550 nm. After treatment, all the samples were washed with PBS and incubated with 2 μM calcein-AM for 30 min at 37 °C, 5% CO2, and protected from light. The fluorescence was measured in a Varioskan microplate reader (Thermo Fisher Scientific, Vantaa, Finland) with λex = 490 and λem = 520 nm filters. Cell viability was calculated from samples treated with 1% Triton X-100 for 30 min at 37 °C, 5% CO2.
Calcein-AM is a membrane permeant, not a fluorescent compound. Only live cells with intact plasma membrane have esterases that hydrolyze the compound into the green fluorescent dye calcein, which is retained in the cytoplasm. The fluorescent signal obtained is proportional to the number of living cells in the sample. […] Microscopy images in Figure S3 show the neuroprotection activity observed with Calcein-AM for derivative 18.

In assay [2] the test system is SH-SY5Y cells. The assay is described as follows: GSH/GSSG ratio. Conditions: H2O2 500 µM 6 h; 10 and 20 µM 24 h before. The procedure:
GSH and GSSG levels were determined by the method of Vikas et al. with slight modifications. In summary, 2 × 10^5 SH-SY5Ycells were seeded in 6-well culture plates. After 24 h, cells were treated with the test compound and incubated for another 24 h. […] Then, cells were washed twice with cold 50 mM PBS buffer, detached, lysed with lysis buffer, and split into two samples: one for GSH analysis and the other for GSSG determination. For GSH analysis, 20 µL of ortho-phthaldehyde (OPT) 20 mg/mL and 280 µL of monobasic potassium phosphate buffer were added per 100 µL of sample replicate. Samples were vortexed and centrifuged at 4 °C at 13,000× g for 10 min. Afterward, 100 µL of supernatant per well was transferred to a black 96-well culture plate with a clear bottom. Fluorescence was measured in a Varioskan plate reader (λex = 360 nm; λem = 420 nm). Sample GSH concentrations were calculated from a standard calibration curve made by serial dilutions of GSH from 0 to 50 µM. […] Fluorescence was measured in a Varioskan plate reader (λex = 360 nm; λem = 420 nm). Sample GSSG concentrations were calculated from a standard calibration curve made by serial dilutions of GSSG from 0 to 200 µM.

Assay [3] relates to SH-SY5Y cells. The assay is described as follows: LDH release under H2O2. Conditions: H2O2 250 µM 24 h; compounds 24 h before; Figure 9. In general terms: Release of lactate dehydrogenase indicates damage to the cell membrane.
The subject of assay [4] is SH-SY5Y cells. As to the kind of experiment: Resazurin cell viability assay under H2O2. Conditions: H2O2 250 µM 24 h; Figure 10B.

Consider `O=C1CC(c2ccccc2)=Nc2ccccc2N1` [Compound 18, 4-Phenyl-1H-1,5-benzodiazepin-2(3H)-one], for which the “Neuroprotection, Calcein-AM cell counting” value in the assay with SH-SY5Y cells [1] is reported as “statistically significant neuroprotectant activity”. Further, in the assay on SH-SY5Y cells [2], the GSH/GSSG ratio entry is “improved the GSH/GSSG ratios of cells under oxidative stress, although without statistical significance”. For the same molecule, in the assay with SH-SY5Y cells [3], the LDH leakage entry is on record as “significant reduction at all the concentrations tested”. For the same molecule, the “Neuroprotection, cell viability (resazurin)” value in the assay with SH-SY5Y cells [4] is listed as “significant protection against the oxidative stress insult”.
